Results from patent US7087623B2, “Thiazole and other heterocyclic ligands for mammalian dopamine, muscarinic and serotonin receptors and transporters, and methods of use thereof” (Sepracor Inc., priority 2001, dated 2006).
Read-outs that look alike come from different tables or passages of the source.

Key:
[1] = biological target: T1, human serotonin 5-HT2B receptor (Homo sapiens, UniProt P41595); assay: Radioligand binding assay, human 5-HT2B receptors ([3H]LSD)
T1 construct: expressed in transfected cells; host or cells: CHO-K1
Summary of the method: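 Membranes from CHO-K1 cells stably expressing human 5-HT2B, in modified Tris-HCl pH 7.4, bound with [3H]LSD. Non-specific binding defined with 10 μM serotonin; specific binding counted after filtration and three washes.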

[2] = biological target: T2, human muscarinic M4 receptor (Homo sapiens, UniProt P08173); assay: Binding to human muscarinic M4 receptors ([3H]N-methylscopolamine)
T2 construct: expressed in transfected cells; host or cells: BSR-M4H
T2 sequence (P08173 1-479): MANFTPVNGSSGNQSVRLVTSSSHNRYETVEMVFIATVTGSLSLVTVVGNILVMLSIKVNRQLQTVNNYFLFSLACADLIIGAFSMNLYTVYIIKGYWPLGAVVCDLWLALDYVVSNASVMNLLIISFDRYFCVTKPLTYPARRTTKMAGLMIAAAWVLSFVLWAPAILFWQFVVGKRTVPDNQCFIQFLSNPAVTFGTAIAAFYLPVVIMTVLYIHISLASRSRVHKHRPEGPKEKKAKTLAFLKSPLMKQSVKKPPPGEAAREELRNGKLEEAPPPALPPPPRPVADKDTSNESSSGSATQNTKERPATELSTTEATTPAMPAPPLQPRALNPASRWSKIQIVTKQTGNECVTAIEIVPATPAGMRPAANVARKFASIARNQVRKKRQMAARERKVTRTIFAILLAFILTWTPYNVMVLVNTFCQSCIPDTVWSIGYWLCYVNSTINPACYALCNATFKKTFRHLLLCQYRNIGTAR
Method: (§1) This assay measures binding of [^3H]N-methylscopolamine to human muscarinic M4 receptors. BSR-M4H cells transfected with a plasmid encoding the human muscarinic M4 receptor were used to prepare membranes in modified Tris-HCl pH 7.4 buffer using standard techniques. A 5 μg aliquot of membrane was incubated with 0.29 nM [^3H]N-methylscopolamine for 60 minutes at 25° C. Non-specific binding was estimated in the presence of 1 μM atropine. Membranes were filtered and washed 3 times and the filters are counted to determine [^3H]N-methylscopolamine specifically bound. See Buckley, N. J., Bonner, T. I., Buckley, C. M. and Brann, M. R. Antagonist binding properties of five cloned muscarinic receptors expressed in CHO-K1 cells. Mol. Pharmacol. 35: 469–476, 1989.
(§2) The human 5-HT2a and 5-HT2b screens were conducted according to Bonhaus, D. W. et al. Br. J. Pharmacol. 1995, 115, 622. The human […], W. A. et al. J. Neurochem. 1997, 69, 1449. The human 5-HT6 screen was conducted according to Monsama, F. J. et al. Mol. Pharmacol. 1993, 43, 320. The assay to human D3 receptors was conducted according to Sokoloff, P. et al. Nature 1990, 347;146. The human dopamine transporter assay was conducted according to Gu, H. et. al. J. Biol. Chem. 1994, 269 (10);7124; and Giros, B. et al. Trends. Pharmacol. Sci. 1993, 14: 43. The human muscarinic M1–M4 screens were conducted according to Buckley N. J. et al. Mol. Pharmacol. 1989, 35:469.
(§3) The human dopamine transporter assay was conducted according to Gu, H. et. al. J. Biol. Chem. 1994, 269 (10);7124 and Giros, B. et al. Trends. Pharmacol. Sci. 1993, 14: 43. The human muscarinic M1–M4 screens were conducted according to Buckley N. J. et al. Mol. Pharmacol. 199, 35:469

[3] = biological target: T3, human muscarinic M1 receptor (Homo sapiens, UniProt P11229); assay: Binding to human muscarinic M1 receptors ([3H]N-methylscopolamine)
T3 construct: expressed in transfected cells; host or cells: BSR-M1H
T3 sequence (P11229 1-460): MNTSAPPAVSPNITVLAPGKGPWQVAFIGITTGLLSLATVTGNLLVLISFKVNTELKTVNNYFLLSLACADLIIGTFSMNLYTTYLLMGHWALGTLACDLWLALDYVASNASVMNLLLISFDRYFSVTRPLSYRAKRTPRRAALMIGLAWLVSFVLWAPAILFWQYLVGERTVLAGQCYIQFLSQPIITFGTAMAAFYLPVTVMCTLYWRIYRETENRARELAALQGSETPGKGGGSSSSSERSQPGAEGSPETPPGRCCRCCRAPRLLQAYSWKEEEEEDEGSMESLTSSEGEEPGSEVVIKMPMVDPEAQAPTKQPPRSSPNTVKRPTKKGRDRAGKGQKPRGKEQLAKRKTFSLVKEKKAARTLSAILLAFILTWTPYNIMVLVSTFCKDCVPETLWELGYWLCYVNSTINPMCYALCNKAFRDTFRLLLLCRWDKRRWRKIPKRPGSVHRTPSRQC
Method: as §1, with “muscarinic M1” for “muscarinic M4”, “receptors. BSR-M1H” for “receptors. BSR-M4H”, “A 25” for “A 5”, “filters were” for “filters are”, “469–476, 1989; Luthin, G. R. and Wolfe, B. B. Comparison of [^3H]pirenzepine and [^3H]quinuclidinylbenzilate binding to muscarine cholinergic receptors in rat brain. J. Pharmacol. Exp. Ther. 228: 648–665, 1984; and Watson, M., Yamamura, H. I. and Roeske, W. R. A unique regulatory profile and regional distribution of [^3H]pirenzepine binding in the rat provide evidence for distinct M1 and M2 muscarinic receptor subtypes. Life. Sci. 32: 3001–3011, 1983.” for “469–476, 1989.”
as §2, §3

[4] = human, Example 100 table, read-out: IC50 (nM) 5-HT2B
[5] = human, Example 100 table, read-out: IC50 (nM) M4
[6] = human, Example 100 table, read-out: IC50 (nM) M1
[7] = human 5-HT2b, Example 16 table, read-out: IC50 (nM) 5-HT2b
[8] = human, Example 101 table, read-out: IC50 (nM) M4
[9] = human, Example 101 table, read-out: IC50 (nM) M1

T1 sequence (P41595 whole entry): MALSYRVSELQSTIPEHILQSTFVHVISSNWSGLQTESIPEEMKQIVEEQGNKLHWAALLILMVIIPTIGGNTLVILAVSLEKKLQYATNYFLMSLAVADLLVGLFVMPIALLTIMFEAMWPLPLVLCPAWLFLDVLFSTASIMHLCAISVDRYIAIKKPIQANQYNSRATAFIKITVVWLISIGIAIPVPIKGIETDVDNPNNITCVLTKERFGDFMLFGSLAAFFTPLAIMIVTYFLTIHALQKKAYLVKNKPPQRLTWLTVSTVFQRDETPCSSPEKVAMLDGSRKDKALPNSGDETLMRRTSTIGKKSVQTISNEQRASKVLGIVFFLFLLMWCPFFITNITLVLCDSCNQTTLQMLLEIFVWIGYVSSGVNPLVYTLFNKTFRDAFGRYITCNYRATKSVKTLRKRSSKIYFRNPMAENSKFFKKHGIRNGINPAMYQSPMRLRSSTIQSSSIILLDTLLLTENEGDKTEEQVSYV

| IC50 [2, 5] | IC50 [3, 6] | Structure (SMILES) | IC50 [1, 7] | IC50 [2, 8] | IC50 [3, 9] | other results |
| --- | --- | --- | --- | --- | --- | --- |
| < 1000 nM | < 1000 nM | CN1CCCC1CCNc1nc(C2(c3ccccc3F)CCCCC2)cs1 (racemic) [Compound 128, {4-[1-(2-fluorophenyl)-cyclohexyl]-thiazol-2-yl}-[2-(1-methyl-pyrrolidin-2-yl)-ethyl]-amine] | – | – | – | IC50 [1, 4]: < 1000 nM |
| > 1000 nM | > 1000 nM | CN1CCCC1CCNc1nc(C2(c3ccccc3F)CCCCC2)cs1 (single isomer, unassigned) [Compound 130, {4-[1-(2-fluorophenyl)-cyclohexyl]-thiazol-2-yl}-[2-(1-methyl-pyrrolidin-2-yl)-ethyl]-amine] | – | – | – | IC50 [1, 4]: < 100 nM |
| – | – | CN1CCN(c2nc(C3(c4csc5ccc(Cl)cc45)CCOCC3)cs2)CC1 [Compound 36] | < 1000 nM | > 1000 nM | > 1000 nM | – |
| – | – | Clc1ccc(C2(c3csc(N4CCNCC4)n3)CCOCC2)cc1 [Compound 37] | > 1000 nM | < 1000 nM | < 500 nM | – |
| – | – | CN1CCN(c2nc(C3(c4ccccc4)CCOCC3)cs2)CC1 [Compound 59] | – | – | – | IC50 [1]: > 1000 nM; IC50 [2]: > 1000 nM; IC50 [3]: > 1000 nM |
| – | – | CN1CCN(c2nc(C3(c4cccc(Cl)c4)CCOCC3)cs2)CC1 [Compound 63] | < 1000 nM | > 1000 nM | > 1000 nM | – |
| – | – | CN1CCN(c2nc(C3(c4ccccc4F)CCCCC3)cs2)CC1 [Compound 83] | < 100 nM | < 1000 nM | < 500 nM | – |
| – | – | CN1CCN(c2nc(C3(c4ccccc4F)CCCC3)cs2)CC1 [Compound 93] | < 1000 nM | < 500 nM | < 500 nM | – |

| Structure (SMILES) | IC50 [2, 5] | IC50 [3, 6] | IC50 [1, 7] | IC50 [2, 8] | IC50 [3, 9] | other results |
| --- | --- | --- | --- | --- | --- | --- |
| CN1CCN(c2nc(C3(c4ccccc4F)CCOCC3)cs2)CC1 [Compound 112] | > 1000 nM | < 1000 nM | – | – | – | – |
